Data taken from ChEMBL document CHEMBL1138876, “An introduction of a pyridine group into the structure of prolyl oligopeptidase inhibitors” (Bioorg Med Chem Lett, 2006).
Converted amounts (≈) assume the structure as drawn.

Key:
[1] = Inhibition of POP in pig brain; set-up: species or system Sus scrofa
[2] = Solubility in phosphate buffer at pH 7.4; type: physicochemical
[3] = Partition co-efficient, log P by shake-flask method; type: physicochemical; conditions: octanol/water
[4] = Partition co-efficient, log P by pH metric titration; type: physicochemical; conditions: octanol/water
[5] = Dissociation constant, pKa of the compound; type: physicochemical

| Structure (SMILES) | IC50 [1] [nM] | solubility [2] [µg/mL] | logP [3] | logP [4] | pKa [5] |
| --- | --- | --- | --- | --- | --- |
| O=C([C@@H]1CCCN1C(=O)Cc1cccnc1)N1CCCC1 | 56 |  |  | -0.2 |  |
| O=C([C@@H]1CCCN1C(=O)c1cccnc1)N1CCCC1 | 44 |  |  | -0.3 |  |
| CC(C)(C)[C@H]1CC[C@@H](C(=O)N2CCCC2)N1C(=O)CCc1cccnc1 | 13 |  |  | 1.8 |  |
| O=C(NCc1ccccn1)C1=CCCC1C(=O)N1CCCC1 (stereo not drawn) | 24 |  |  | 0.3 | 4.4 |
| O=C([C@@H]1CCCN1C(=O)CCCc1ccccc1)N1CCCC1 |  | > 6000 |  |  |  |
| O=C(NCc1ccncc1)C1=CCCC1C(=O)N1CCCC1 (stereo not drawn) | 19 |  |  | 0.4 | 4.4 |
| CC(C)(C)[C@H]1CC[C@@H](C(=O)N2CCCC2)N1C(=O)CCCc1ccccc1 |  | 900 (≈ 2.43 mM) | 3.3 |  |  |
| O=C([C@@H]1CCCN1C(=O)CCc1cccnc1)N1CCCC1 | 30 |  |  | 0.3 |  |

Continued by falling IC50 [1], values first:

| IC50 [1] [nM] | solubility [2] [µg/mL] | logP [3] | logP [4] | pKa [5] | Structure (SMILES) |
| --- | --- | --- | --- | --- | --- |
| 9.7 | > 6000 |  | 0.4 | 4.4 | O=C(NCc1cccnc1)C1=CCCC1C(=O)N1CCCC1 (stereo not drawn) |
| 9 | 3000 (≈ 10.1 mM) | 1.6 |  |  | O=C(NCc1ccccc1)C1=CCCC1C(=O)N1CCCC1 (stereo not drawn) |
| 5.2 |  |  | 0.6 | 4.4 | O=C(NCCc1ccccn1)C1=CCCC1C(=O)N1CCCC1 (stereo not drawn) |
| 4.8 |  |  | 0.5 | 4.4 | O=C(NCCc1ccncc1)C1=CCCC1C(=O)N1CCCC1 (stereo not drawn) |
| 2.2 |  |  | 0.6 | 4.4 | O=C(NCCc1cccnc1)C1=CCCC1C(=O)N1CCCC1 (stereo not drawn) |
| 2.1 | > 6000 |  | 2 |  | CC(C)(C)[C@H]1CC[C@@H](C(=O)N2CCCC2)N1C(=O)CCCc1cccnc1 |
| 1.5 |  | 1.9 |  |  | O=C(NCCc1ccccc1)C1=CCCC1C(=O)N1CCCC1 (stereo not drawn) |
